Laboratory results from patent US8207172B2 (Bayer Intellectual Property GmbH, priority 2004, dated 2012).
Structures can show the parent of a compound that is named as a salt.

Tests used:
[1] = system: BT474 (human breast carcinoma); test: In vitro tumor cell proliferation assay (Cell Titer-Glo luminescent cell viability), BT474; type: cell-based; details: BT-474, 72 h, BT474 cells, 72 hours of drug exposure, ATP luminescence readout, read-out: IC50, anti-proliferative activity (inhibition of cell proliferation)
Method in brief: (§1)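 Proliferation inhibition was measured as ATP-dependent luciferase signal after cells in RPMI with 10% FBS received test compound for 72 h at 37° C. Final concentrations spanned […] to 64 pM in 0.1% DMSO; IC50 values were derived.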

[2] = system: A431 cells (human epidermoid carcinoma); test: In vitro tumor cell proliferation assay (Cell Titer-Glo luminescent cell viability), A431; type: cell-based; details: A-431, 72 h, 72 hours of drug exposure, ATP luminescence readout, read-out: IC50, anti-proliferative activity (inhibition of cell proliferation)
Method in brief: as §1

IC50 [1] | IC50 [2] | Structure (SMILES)
≤ 1 µM | ≤ 50 µM | O[C@H](CNCCN1CCOCC1)Cn1ncc2c1CCc1c-2sc2ncnc(Nc3ccc(OCc4cccc(F)c4)c(Cl)c3)c12 [Example 165, (2R)-1-[6-({3-chloro-4-[(3-fluorobenzyl)oxy]phenyl}amino)-4,5-dihydro-3H-pyrimido[5′,4′:4,5]thieno[2,3-e]indazol-3-yl]-3-[(2-morpholin-4-ylethyl)amino]propan-2-ol]
≤ 1 µM | ≤ 50 µM | CNC[C@@H](O)Cn1ncc2c1CCc1c-2sc2ncnc(Nc3ccc(OCc4cccc(F)c4)c(Cl)c3)c12 [Example 166, (2R)-1-[6-({3-chloro-4-[(3-fluorobenzyl)oxy]phenyl}amino)-4,5-dihydro-3H-pyrimido[5′,4′:4,5]thieno[2,3-e]indazol-3-yl]-3-(methylamino)propan-2-ol trifluoroacetate (salt)]
≤ 1 µM | ≤ 50 µM | CN1CCN(C[C@@H](O)Cn2ncc3c2CCc2c-3sc3ncnc(Nc4ccc(OCc5cccc(F)c5)c(Cl)c4)c23)CC1 [Example 167, (2R)-1-[6-({3-chloro-4-[(3-fluorobenzyl)oxy]phenyl}amino)-4,5-dihydro-3H-pyrimido[5′,4′:4,5]thieno[2,3-e]indazol-3-yl]-3-(4-methylpiperazin-1-yl)propan-2-ol trifluoroacetate (salt)]
≤ 1 µM | ≤ 50 µM | CCN(CC)C[C@@H](O)Cn1ncc2c1CCc1c-2sc2ncnc(Nc3ccc(OCc4cccc(F)c4)c(Cl)c3)c12 [Example 168, (2R)-1-[6-({3-chloro-4-[(3-fluorobenzyl)oxy]phenyl}amino)-4,5-dihydro-3H-pyrimido[5′,4′:4,5]thieno[2,3-e]indazol-3-yl]-3-(diethylamino)propan-2-ol trifluoroacetate (salt)]
≤ 1 µM | ≤ 50 µM | CCNC[C@@H](O)Cn1ncc2c1CCc1c-2sc2ncnc(Nc3ccc(OCc4cccc(F)c4)c(Cl)c3)c12 [Example 169, (2R)-1-[6-({3-chloro-4-[(3-fluorobenzyl)oxy]phenyl}amino)-4,5-dihydro-3H-pyrimido[5′,4′:4,5]thieno[2,3-e]indazol-3-yl]-3-(ethylamino)propan-2-ol trifluoroacetate (salt)]
≤ 1 µM | ≤ 50 µM | O[C@H](Cn1ccnc1)Cn1ncc2c1CCc1c-2sc2ncnc(Nc3ccc(OCc4cccc(F)c4)c(Cl)c3)c12 [Example 170, (2R)-1-[6-({3-chloro-4-[(3-fluorobenzyl)oxy]phenyl}amino)-4,5-dihydro-3H-pyrimido[5′,4′:4,5]thieno[2,3-e]indazol-3-yl]-3-(1H-imidazol-1-yl)propan-2-ol trifluoroacetate (salt)]
≤ 1 µM | ≤ 50 µM | CN(C)C[C@@H](O)Cn1ncc2c1CCc1c-2sc2ncnc(Nc3ccc(OCc4cccc(F)c4)c(Cl)c3)c12 [Example 171, (2R)-1-[6-({3-chloro-4-[(3-fluorobenzyl)oxy]phenyl}amino)-4,5-dihydro-3H-pyrimido[5′,4′:4,5]thieno[2,3-e]indazol-3-yl]-3-(dimethylamino)propan-2-ol trifluoroacetate (salt)]
≤ 1 µM | ≤ 50 µM | OCCN(CCO)C[C@@H](O)Cn1ncc2c1CCc1c-2sc2ncnc(Nc3ccc(OCc4cccc(F)c4)c(Cl)c3)c12 [Example 172, (2R)-1-[bis(2-hydroxyethyl)amino]-3-[6-({3-chloro-4-[(3-fluorobenzyl)oxy]phenyl}amino)-4,5-dihydro-3H-pyrimido[5′,4′:4,5]thieno[2,3-e]indazol-3-yl]propan-2-ol trifluoroacetate (salt)]
≤ 1 µM | ≤ 5 µM | COCCNC[C@@H](O)Cn1ncc2c1CCc1c-2sc2ncnc(Nc3ccc(OCc4cccc(F)c4)c(Cl)c3)c12 [Example 173, (2R)-1-[6-({3-chloro-4-[(3-fluorobenzyl)oxy]phenyl}amino)-4,5-dihydro-3H-pyrimido[5′,4′:4,5]thieno[2,3-e]indazol-3-yl]-3-[(2-methoxyethyl)amino]propan-2-ol trifluoroacetate (salt)]
≤ 1 µM | ≤ 50 µM | CCOC(=O)Cn1cc2c(n1)CCc1c-2sc2ncnc(Nc3ccc(OCc4cccc(F)c4)c(Cl)c3)c12 [Example 174]
≤ 5 µM | ≤ 50 µM | O=C(O)Cn1cc2c(n1)CCc1c-2sc2ncnc(Nc3ccc(OCc4cccc(F)c4)c(Cl)c3)c12 [Example 175, [6-({3-chloro-4-[(3-fluorobenzyl)oxy]phenyl}amino)-4,5-dihydro-2H-pyrimido[5′,4′:4,5]thieno[2,3-e]indazol-2-yl]acetic acid]
≤ 1 µM | ≤ 5 µM | Fc1cccc(COc2ccc(Nc3ncnc4sc5c(c34)CCc3nn(CCN4CCNCC4)cc3-5)cc2Cl)c1 [Example 176, N-{3-chloro-4-[(3-fluorobenzyl)oxy]phenyl}-2-(2-piperazin-1-ylethyl)-4,5-dihydro-2H-pyrimido[5′,4′:4,5]thieno[2,3-e]indazol-6-amine]
≤ 1 µM | ≤ 5 µM | CN(C)[C@H]1CCN(C(=O)Cn2cc3c(n2)CCc2c-3sc3ncnc(Nc4ccc(OCc5cccc(F)c5)c(Cl)c4)c23)C1 [Example 177, N-{3-chloro-4-[(3-fluorobenzyl)oxy]phenyl}-2-{2-[(3S)-3-(dimethylamino)pyrrolidin-1-yl]-2-oxoethyl}-4,5-dihydro-2H-pyrimido[5′,4′:4,5]thieno[2,3-e]indazol-6-amine]
≤ 1 µM | ≤ 50 µM | O=C(Cn1cc2c(n1)CCc1c-2sc2ncnc(Nc3ccc(OCc4cccc(F)c4)c(Cl)c3)c12)NCCO [Example 178, 2-[6-({3-chloro-4-[(3-fluorobenzyl)oxy]phenyl}amino)-4,5-dihydro-2H-pyrimido[5′,4′:4,5]thieno[2,3-e]indazol-2-yl]-N-(2-hydroxyethyl)acetamide]
≤ 1 µM | ≤ 5 µM | O=C(Cn1cc2c(n1)CCc1c-2sc2ncnc(Nc3ccc(OCc4cccc(F)c4)c(Cl)c3)c12)N1CCOCC1 [Example 179, N-{3-chloro-4-[(3-fluorobenzyl)oxy]phenyl}-2-(2-morpholin-4-yl-2-oxoethyl)-4,5-dihydro-2H-pyrimido[5′,4′:4,5]thieno[2,3-e]indazol-6-amine]
≤ 1 µM | ≤ 50 µM | CS(=O)(=O)CCNC(=O)Cn1cc2c(n1)CCc1c-2sc2ncnc(Nc3ccc(OCc4cccc(F)c4)c(Cl)c3)c12 [Example 180, 2-[6-({3-chloro-4-[(3-fluorobenzyl)oxy]phenyl}amino)-4,5-dihydro-2H-pyrimido[5′,4′:4,5]thieno[2,3-e]indazol-2-yl]-N-[2-(methylsulfonyl)ethyl]acetamide]
≤ 1 µM | ≤ 5 µM | CN(C)[C@@H]1CCN(C(=O)Cn2cc3c(n2)CCc2c-3sc3ncnc(Nc4ccc(OCc5cccc(F)c5)c(Cl)c4)c23)C1 [Example 181, N-{3-chloro-4-[(3-fluorobenzyl)oxy]phenyl}-2-{2-[3-(dimethylamino)pyrrolidin-1-yl]-2-oxoethyl}-4,5-dihydro-2H-pyrimido[5′,4′:4,5]thieno[2,3-e]indazol-6-amine]
≤ 1 µM | ≤ 5 µM | CN1CCN(C(=O)Cn2cc3c(n2)CCc2c-3sc3ncnc(Nc4ccc5c(cnn5Cc5cccc(F)c5)c4)c23)CC1 [Example 182, N-[1-(3-fluorobenzyl)-1H-indazol-5-yl]-2-[2-(4-methylpiperazin-1-yl)-2-oxoethyl]-4,5-dihydro-2H-pyrimido[5′,4′:4,5]thieno[2,3-e]indazol-6-amine]
≤ 1 µM | ≤ 5 µM | CN1CCN(C(=O)Cn2cc3c(n2)CCc2c-3sc3ncnc(Nc4ccc(OCc5cccc(F)c5)c(Cl)c4)c23)CC1 [Example 183, N-{3-chloro-4-[(3-fluorobenzyl)oxy]phenyl}-2-[2-(4-methylpiperazin-1-yl)-2-oxoethyl]-4,5-dihydro-2H-pyrimido[5′,4′:4,5]thieno[2,3-e]indazol-6-amine]
≤ 1 µM | ≤ 5 µM | CN(C)C(=O)Cn1cc2c(n1)CCc1c-2sc2ncnc(Nc3ccc(OCc4cccc(F)c4)c(Cl)c3)c12 [Example 184, 2-[6-({3-chloro-4-[(3-fluorobenzyl)oxy]phenyl}amino)-4,5-dihydro-2H-pyrimido[5′,4′:4,5]thieno[2,3-e]indazol-2-yl]-N,N-dimethylacetamide]
≤ 1 µM | ≤ 5 µM | CCN1CCN(C(=O)Cn2cc3c(n2)CCc2c-3sc3ncnc(Nc4ccc(OCc5cccc(F)c5)c(Cl)c4)c23)CC1 [Example 185, N-{3-chloro-4-[(3-fluorobenzyl)oxy]phenyl}-2-[2-(4-ethylpiperazin-1-yl)-2-oxoethyl]-4,5-dihydro-2H-pyrimido[5′,4′:4,5]thieno[2,3-e]indazol-6-amine]
≤ 1 µM | ≤ 5 µM | COCCN1CCN(C(=O)Cn2cc3c(n2)CCc2c-3sc3ncnc(Nc4ccc(OCc5cccc(F)c5)c(Cl)c4)c23)CC1 [Example 186, N-{3-chloro-4-[(3-fluorobenzyl)oxy]phenyl}-2-{2-[4-(2-methoxyethyl)piperazin-1-yl]-2-oxoethyl}-4,5-dihydro-2H-pyrimido[5′,4′:4,5]thieno[2,3-e]indazol-6-amine]
≤ 1 µM | ≤ 50 µM | O=C(Cn1cc2c(n1)CCc1c-2sc2ncnc(Nc3ccc(OCc4cccc(F)c4)c(Cl)c3)c12)N(CCO)CCO [Example 187, 2-[6-({3-chloro-4-[(3-fluorobenzyl)oxy]phenyl}amino)-4,5-dihydro-2H-pyrimido[5′,4′:4,5]thieno[2,3-e]indazol-2-yl]-N,N-bis(2-hydroxyethyl)acetamide]
≤ 1 µM | ≤ 50 µM | CNC(=O)Cn1cc2c(n1)CCc1c-2sc2ncnc(Nc3ccc(OCc4cccc(F)c4)c(Cl)c3)c12 [Example 188, 2-[6-({3-chloro-4-[(3-fluorobenzyl)oxy]phenyl}amino)-4,5-dihydro-2H-pyrimido[5′,4′:4,5]thieno[2,3-e]indazol-2-yl]-N-methylacetamide]
